The assay concerns the target T1, human vasopressin V1b receptor (Homo sapiens, UniProt P47901).
T1 construct: expressed in transfected cells; host or cells: CHO-K1 (cell line hV1b-3H2_CHO), membrane preparation
T1 sequence (P47901 1-424): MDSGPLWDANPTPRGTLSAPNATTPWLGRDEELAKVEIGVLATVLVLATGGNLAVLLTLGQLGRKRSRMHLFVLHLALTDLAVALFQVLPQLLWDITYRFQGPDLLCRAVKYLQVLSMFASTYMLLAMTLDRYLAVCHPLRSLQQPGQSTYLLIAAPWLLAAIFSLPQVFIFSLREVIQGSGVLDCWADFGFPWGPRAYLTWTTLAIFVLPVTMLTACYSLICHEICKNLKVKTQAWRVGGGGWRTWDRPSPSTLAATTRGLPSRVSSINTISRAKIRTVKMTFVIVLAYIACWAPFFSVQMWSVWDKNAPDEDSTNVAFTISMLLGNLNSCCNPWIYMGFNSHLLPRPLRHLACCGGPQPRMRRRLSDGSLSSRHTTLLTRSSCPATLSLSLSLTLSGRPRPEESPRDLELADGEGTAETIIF
Put plainly: Vasopressin V1b receptor binding assay. To be noted: membranes from CHO-K1 cells with stably expressed human V1b receptors; displacement of 1.5 nM 3H-AVP; read-out: V1b receptor affinity (affinity constant Ki). The procedure: Vasopressin V1b Receptor Binding Assay:
The test substances were dissolved in a concentration of 10^−2 M in DMSO and further diluted to 5×10^−4 M to 5×10^−9 M in DMSO. This series of DMSO predilutions was diluted 1:10 with assay buffer. The substance concentration was again diluted 1:5 in the assay mixture (2% DMSO in the mixture).
The membrane pellet was again homogenized and centrifuged as described and then taken up in 50 mM Tris-HCl, pH 7.4, homogenized and stored in aliquots frozen in liquid nitrogen at −190° C.
The incubation buffer was: 50 mM Tris, 10 mM MgCl2, 0.1% BSA, pH 7.4. […] The nonspecific binding was determined with 1 uM AVP (Bachem #H1780). All determinations were carried out as triplicate determinations. After incubation (60 minutes at room temperature), the free radioligand was removed by vacuum filtration (Skatron cell harvester 7000) through Wathman GF/B glass fiber filter mats, and the filters were transferred into scintillation vials. The liquid scintillation measurement took place in a Tricarb model 2000 or 2200CA instrument (Packard). Conversion of the measured cpm into dpm was carried out with the aid of a standard quench series.
The binding parameters were calculated by nonlinear regression in SAS.
The above assay was used to measure the affinities of the compounds of the invention for the human vasopressin V1b receptor and to determine the affinity constants (Ki).

pKi: −log10 of the molar value. Where only a bound is given, the exact number is not on record here.

Usually pKi stands for −log10 of the Ki, conventionally taken in molar units. On to `COc1ccccc1S(=O)(=O)n1c(=O)n(C(C(=O)N2CCN(c3ccncc3)CC2)c2ccccc2)c2cc(Cl)ccc21` (stereo not shown) [Example 45, 5-Chloro-1-(2-methoxybenzenesulfonyl)-3-[2-oxo-1-phenyl-2-(4-pyridin-4-ylpiperazin-1-yl)ethyl]-1,3-dihydrobenzimidazol-2-one], for which the pKi was 6.30 to 7.00.
The value for `COc1ccc(S(=O)(=O)n2c(=O)n(C(C(=O)N3CCN(c4ccncc4)CC3)c3ccccc3)c3cc(C#N)ccc32)cc1` (stereo not shown) [Example 46, 1-(4-Methoxybenzenesulfonyl)-2-oxo-3-[2-oxo-1-phenyl-2-(4-pyridin-4-ylpiperazin-1-yl)ethyl]-2,3-dihydro-1H-benzimidazole-5-carbonitrile] was 6.30 to 7.00; that for `O=C(C(c1ccccc1)n1c(=O)n(S(=O)(=O)c2ccccc2)c2ccc(Cl)cc21)N1CCN(c2ccncc2)CC1` (stereo not shown) [Example 47, 1-Benzenesulfonyl-5-chloro-3-[2-oxo-1-phenyl-2-(4-pyridin-4-ylpiperazin-1-yl)ethyl]-1,3-dihydrobenzimidazol-2-one] was 6.30 to 7.00.
Regarding `COc1ccc(S(=O)(=O)n2c(=O)n(C(C(=O)N3CCN(c4ccncc4)CC3)c3ccccc3)c3cc(C#N)ccc32)c(OC)c1` (stereo not shown) [Example 48, 1-(2,4-Dimethoxybenzenesulfonyl)-2-oxo-3-[2-oxo-1-phenyl-2-(4-pyridin-4-ylpiperazin-1-yl)-ethyl]-2,3-dihydro-1H-benzimidazole-5-carbonitrile], the pKi was 5.00 to 6.30.
For `O=C(C(c1ccccc1)n1c(=O)n(S(=O)(=O)c2ccc(C(F)(F)F)cc2)c2ccc(Cl)cc21)N1CCN(c2ccncc2)CC1` (stereo not shown) [Example 49, 5-Chloro-3-[2-oxo-1-phenyl-2-(4-pyridin-4-ylpiperazin-1-yl)ethyl]-1-(4-trifluoromethylbenzenesulfonyl)-1,3-dihydrobenzimidazol-2-one], the pKi is 5.00 to 6.30.
The figure for `N#Cc1ccc2c(c1)n(C(C(=O)N1CCN(c3ccncc3)CC1)c1ccccc1)c(=O)n2S(=O)(=O)c1cccc2cccnc12` (stereo not shown) [Example 50, 2-Oxo-3-[2-oxo-1-phenyl-2-(4-pyridin-4-ylpiperazin-1-yl)ethyl]-1-(quinoline-8-sulfonyl)-2,3-dihydro-1H-benzimidazole-5-carbonitrile] is 5.00 to 6.30.
As to `N#Cc1ccc(S(=O)(=O)n2c(=O)n(C(C(=O)N3CCN(c4ccncc4)CC3)c3ccccc3)c3cc(C#N)ccc32)cc1` (stereo not shown) [Example 51, 1-(4-Cyanobenzenesulfonyl)-2-oxo-3-[2-oxo-1-phenyl-2-(4-pyridin-4-ylpiperazin-1-yl)ethyl]-2,3-dihydro-1H-benzimidazole-5-carbonitrile], the pKi is 5.00 to 6.30.
The value for `CCCN1CCN(C2CCN(C(=O)C(c3ccccc3)n3c(=O)n(S(=O)(=O)c4ccc(OC)cc4)c4ccc(C#N)cc43)C2)CC1` (stereo not shown) [Example 52, 1-(4-Methoxybenzenesulfonyl)-2-oxo-3-{2-oxo-1-phenyl-2-[3-(4-propylpiperazin-1-yl)-pyrrolidin-1-yl]-ethyl}-2,3-dihydro-1H-benzimidazole-5-carbonitrile] was over 7.00.
The value for `O=C(C(c1ccccc1)n1c(=O)n(S(=O)(=O)c2cccc3cccnc23)c2ccc(Cl)cc21)N1CCN(c2ccncc2)CC1` (stereo not shown) [Example 53, 5-Chloro-3-[2-oxo-1-phenyl-2-(4-pyridin-4-ylpiperazin-1-yl)ethyl]-1-(quinoline-8-sulfonyl)-1,3-dihydrobenzimidazol-2-one] was over 7.00.
Consider `COc1ccc(S(=O)(=O)n2c(=O)n(C(C(=O)N3CCN(C4CCN(C)CC4)CC3)c3ccccc3)c3cc(Cl)ccc32)cc1` (stereo not shown) [Example 55, 5-Chloro-1-(4-methoxybenzenesulfonyl)-3-{2-[4-(1-methylpiperidin-4-yl)piperazin-1-yl]-2-oxo-1-phenylethyl}-1,3-dihydrobenzimidazol-2-one], for which the pKi is 6.30 to 7.00.
As to `COc1ccc(S(=O)(=O)n2c(=O)n(C(C(=O)N3CCN(c4ccncc4)CC3)c3ccccc3)c3cc(Cl)ccc32)c(OC)c1` (stereo not shown) [Example 56, 5-Chloro-1-(2,4-dimethoxybenzenesulfonyl)-3-[2-oxo-1-phenyl-2-(4-pyridin-4-ylpiperazin-1-yl)-ethyl]-1,3-dihydrobenzimidazol-2-one], the pKi was 6.30 to 7.00.
The figure for `N#Cc1ccc(S(=O)(=O)n2c(=O)n(C(C(=O)N3CCN(c4ccncc4)CC3)c3ccccc3)c3cc(Cl)ccc32)cc1` (stereo not shown) [Example 57, 4-{5-Chloro-2-oxo-3-[2-oxo-1-phenyl-2-(4-pyridin-4-ylpiperazin-1-yl)-ethyl]-2,3-dihydrobenzimidazole-1-sulfonyl}-benzonitrile] is over 7.00; for `COc1ccc(S(=O)(=O)n2c(=O)n(C(C(=O)N3CCN(c4ccncc4)CC3)c3ccccc3)c3cc(Cl)ccc32)cc1` (stereo not shown) [Example 58, 5-Chloro-1-(4-methoxybenzenesulfonyl)-3-[2-oxo-1-phenyl-2-(4-pyridin-4-ylpiperazin-1-yl)ethyl]-1,3-dihydrobenzimidazol-2-one] it is over 7.00.
Take `COc1ccc(S(=O)(=O)n2c(=O)n(C(C(=O)N3CCN(c4ccncc4)CC3)c3ccccc3)c3cc(Cl)c(Cl)cc32)c(OC)c1` (stereo not shown) [Example 59, 5,6-Dichloro-1-(2,4-dimethoxybenzenesulfonyl)-3-[2-oxo-1-phenyl-2-(4-pyridin-4-ylpiperazin-1-yl)ethyl]-1,3-dihydrobenzoimidaz]: the pKi is 5.00 to 6.30.
The value for `COc1ccc(S(=O)(=O)n2c(=O)n(C(C(=O)N3CCN(C4CCN(C)CC4)CC3)c3ccccc3)c3ccccc32)cc1` (stereo not shown) [Example 60, 1-(4-Methoxybenzenesulfonyl)-3-{2-[4-(1-methylpiperidin-4-yl)piperazin-1-yl]-2-oxo-1-phenyl-ethyl}-1,3-dihydrobenzimidazol-2-one] was 5.00 to 6.30; that for `N#Cc1ccc(S(=O)(=O)n2c(=O)n(C(C(=O)N3CCN(c4ccncc4)CC3)c3ccccc3)c3cc(Cl)c(Cl)cc32)cc1` (stereo not shown) [Example 62, 4-{5,6-Dichloro-2-oxo-3-[2-oxo-1-phenyl-2-(4-pyridin-4-ylpiperazin-1-yl)-ethyl]-2,3-dihydrobenzimidazol-1-sulfonyl}benzonitrile] was 5.00 to 6.30; that for `COc1ccc(S(=O)(=O)n2c(=O)n(C(C(=O)N3CCC(N4CCN(C)CC4)CC3)c3ccccc3)c3cc(Cl)ccc32)c(OC)c1` (stereo not shown) [Example 63, 5-Chloro-1-(2,4-dimethoxybenzenesulfonyl)-3-{2-[4-(4-methylpiperazin-1-yl)piperidin-1-yl]-2-oxo-1-phenylethyl}-1,3-dihydrobenzimidazol-2-one] was 6.30 to 7.00.
`COc1ccc(S(=O)(=O)n2c(=O)n(C(C(=O)N3CCC(N4CCN(C)CC4)CC3)c3ccccc3)c3cc(Cl)ccc32)cc1` (stereo not shown) [Example 64, 5-Chloro-1-(4-methoxybenzenesulfonyl)-3-{2-[4-(4-methylpiperazin-1-yl)piperidin-1-yl]-2-oxo-1-phenylethyl}-1,3-dihydrobenzimidazol-2-one]: the pKi was 6.30 to 7.00.
Regarding `CN1CCN(C2CCN(C(=O)C(c3ccccc3)n3c(=O)n(S(=O)(=O)c4ccc(C#N)cc4)c4ccc(Cl)cc43)CC2)CC1` (stereo not shown) [Example 65, 4-(5-Chloro-3-{2-[4-(4-methylpiperazin-1-yl)piperidin-1-yl]-2-oxo-1-phenylethyl}-2-oxo-2,3-dihydrobenzimidazole-1-sulfonyl)benzonitrile], the pKi is 6.30 to 7.00.
Turning to `COc1ccc(S(=O)(=O)n2c(=O)n(C(C(=O)N3CCN(c4ccncc4)CC3)c3ccccc3)c3ccc(Cl)cc32)c(OC)c1` (stereo not shown) [Example 66, 5-Chloro-3-(2,4-dimethoxybenzenesulfonyl)-1-[2-oxo-1-phenyl-2-(4-pyridin-4-ylpiperazin-1-yl)ethyl]-1,3-dihydrobenzimidazol-2-one], the pKi was 5.00 to 6.30.
As to `COc1ccc(S(=O)(=O)n2c(=O)n(C(C(=O)N3CCN(C4CCN(C)CC4)CC3)c3ccccc3)c3ccccc32)c(OC)c1` (stereo not shown) [Example 67, 1-(2,4-Dimethoxybenzenesulfonyl)-3-{2-[4-(1-methylpiperidin-4-yl)piperazin-1-yl]-2-oxo-1-phenylethyl}-1,3-dihydrobenzimidazol-2-one], the pKi is 5.00 to 6.30.
For `CN1CCC(N2CCN(C(=O)C(c3ccccc3)n3c(=O)n(S(=O)(=O)c4ccc(C#N)cc4)c4ccc(Cl)cc43)CC2)CC1` (stereo not shown) [Example 68, 4-(5-Chloro-3-{2-[4-(1-methylpiperidin-4-yl)piperazin-1-yl]-2-oxo-1-phenylethyl}-2-oxo-2,3-dihydrobenzimidazol-1-sulfonyl)benzonitrile], the pKi is 6.30 to 7.00.

Source of the values: US8791148B2, “Substituted benzimidazolone derivatives, medicaments comprising them and their use” (AbbVie Deutschland GmbH & Co. KG, priority 2006, dated 2014).
